{"source": "patent US20090274676A1", "about": "“COMBINATION OF DEHYDROEPIANDROSTERONE OR DEHYDROEPIANDROSTERONE-SULFATE WITH A PDE-4 INHIBITOR FOR TREATMENT OF ASTHMA OR CHRONIC OBSTRUCTIVE PULMONARY DISEASE” (priority 2003, published 2009)", "key": {"adenosine": {"test_system": "adenosine", "assay": "In vivo effect on adenosine levels in rat tissues (HPLC of tissue adenosine)", "procedure": "Folinic acid (50 mg/kg) was administered intraperitoneally once daily for fourteen days. […] Hearts were removed from animals and flash frozen in liquid nitrogen with 10 s of death. Liver and lungs were removed en bloc and flash frozen with 30 s of death. Brain tissue was subsequently dissected."}, "HT-29 SF cells [1]": {"test_system": "HT-29 SF cells", "assay": "Reversal of DHEA-mediated growth inhibition", "type": "cell-based, human", "conditions": "25 μM DHEA, supplement in medium, 48 hours"}, "HT-29 SF cells [2]": {"test_system": "HT-29 SF cells", "assay": "Reversal of DHEA effect on cell cycle (flow cytometry)", "type": "cell-based, human", "conditions": "25 μM DHEA, 48 hours"}, "HT-29 SF cells [3]": {"test_system": "HT-29 SF cells", "assay": "DHEA effect on cell growth (Coulter counter)", "type": "cell-based, human", "conditions": "12.5-200 μM, 24-72 hours"}, "Solubility of DHEA-S": {"assay": "Solubility of DHEA-S", "type": "physicochemical", "conditions": "for Solubility: range of triplicates", "from_the_text": "Inhalation of pure water can produce a cough stimulus. […] The temperature effect is weaker at high NaCl concentrations."}, "HT-29 SF cells [4]": {"test_system": "HT-29 SF cells", "assay": "DHEA effect on cell cycle (flow cytometry)", "type": "cell-based, human", "procedure": "Cells were plated at 10^5/60-mm dish in duplicate. […] Cultures were trypsinized following 0, 24, 48, or 74 hours and fixed and stained using a modification of a procedure of Bauer et al., Cancer Res. 46, 3173-3178 (1986). Briefly, cells were collected by centrifugation and resuspended in cold phosphate-buffered saline. Cells were fixed in 70% ethanol, washed, and resuspended in phosphate-buffered saline.\nAfter 24, 48, and 72 hours, cells were harvested, fixed in ethanol, and stained with propidium iodide, and the DNA content/cell was determined by flow cytometric analysis. The percentage of cells in G1, S, and G2M phases was calculated using the Cellfit cell cycle analysis program. S phase is marked by a quadrangle for clarity. Representative histograms from duplicate determinations are shown. The experiment was repeated three times."}, "[5]": {"assay": "Aerosolization of neat DHEA-S dihydrate, Acu-Breathe single-dose inhaler, fine particle fraction", "type": "physicochemical", "conditions": "neat powder, Acu-Breathe, 30 to 75 L/min, all flow rates", "from_the_text": "The single-dose Acu-Breathe device is used for evaluating DHEA-S.dihydrate. […] These blisters are actuated into the Andersen 8-stage cascade impactor at flow rates ranging from 30 to 75 L/min with a glass twin-impinger throat. Stages 1-5 of the Andersen impactor are rinsed together to obtain an estimate of the fine particle fraction. Pooling the drug collected from multiple stages into one assay make the method much more sensitive. […] Using a carrier with a larger particle size typically improves the aerosol properties of micronized drug substances."}, "[6]": {"assay": "Physicochemical testing of DHEA-S dihydrate before and after micronization", "conditions": "for Water (% w/w): Karl Fischer", "procedure": "Surface area is determined using five point BET analyses are performed with nitrogen as the adsorbing gas (P/Po=0.05 to 0.30) using a Micromeritics TriStar surface area analyzer. Particle size distributions are measured by laser diffraction using a Micromeritics Saturn Digisizer where the particles are suspended in mineral oil with sodium dioctyl sodium sulfosuccinate as a dispersing agent. Drug substance water content is measured by Karl Fischer titration (Schott Titroline KF). Pure water is used as the standard and all relative standard deviations for triplicates are less than 1%. Powder is added directly to the titration media."}, "[7]": {"assay": "Solid-state stability with and without lactose at 50° C. (HPLC, DHEA formation)", "type": "physicochemical", "from_the_text": "These conditions were used to stress the formulation in order to predict its long-term stability results. […] The primary degradant is DHEA. […] The materials on accelerated storage become more cohesive with time as evidenced by clumping during sample weighing for chemical analysis. […] This is a considerable disadvantage since lactose is the most commonly used inhalation excipient for dry powder formulations. Continuing with the virtually anhydrous form would mean limiting formulations to neat powder or undertaking more comprehensive safety studies to use a novel excipient."}, "[8]": {"assay": "HPLC analysis of drug degradation during jet milling", "type": "physicochemical", "conditions": "HPLC peak area vs unmilled standard", "procedure": "Two vials (A; single-pass; 150 mg) and (B double-pass; 600 mg) of the micronized drug were available for determining drug degradation during jet milling micronization. […] The chromatographic peak area for the HPLC assay of the unmilled drug standard solution (10 mg/ml) gave a value of 23,427. […] The chromatographic peak areas for vials A and B were 11,979 and 11,677, respectively."}, "[9]": {"assay": "Short-term solution stability of DHEA-S nebulizer formulation", "type": "physicochemical", "conditions": "for Appearance of solution on storage: 10 mg/mL in 0.12% NaCl", "procedure": "Aliquots of this solution are filled into clear glass vials and stored at RT (24-26° C.) and at 40° C. The samples are checked daily for DHEA-S content, DHEA content, and appearance. For each time point, duplicate samples are withdrawn and diluted from each vial. […] The study is stopped on day three. […] The solution should easily be stable for the day of reconstitution in a clinical trial. The following section describes the aerosol properties of this formulation."}, "asthma": {"test_system": "asthma", "conditions": "657 patients with asthma, cited from earlier work"}, "[10]": {"conditions": "Folinic Acid 50 mg/kg intraperitoneally once daily 14 days, mean±SEM"}}, "note": "Like-named read-outs stand apart in the source and are kept apart here."}
{"smiles": "Nc1nc(=O)c2c([nH]1)NCC(CNc1ccc(C(=O)N[C@@H](CCC(=O)O)C(=O)O)cc1)N2C=O", "note": "(mixture of isomers) [Folinic Acid, Folinic acid]", "values": [{"measurement": "Intracellular adenosine, Brain", "setting": "adenosine; [10]", "result": "0.72 ± 0.09", "unit": "nmols/mg protein"}, {"measurement": "Intracellular adenosine, Heart", "setting": "adenosine; [10]", "result": "12.4 ± 2.1", "unit": "nmols/mg protein"}, {"measurement": "Intracellular adenosine, Liver", "setting": "adenosine; [10]", "result": "16.4 ± 2.4", "unit": "nmols/mg protein"}, {"measurement": "Effect on adenosine levels when administered alone", "setting": "adenosine; all organs studied", "result": "increase in adenosine levels"}, {"measurement": "Effect of coadministration on steroid-mediated adenosine depletion", "setting": "adenosine; coadministered with DHEA or methyltestosterone", "result": "completely abrogated"}]}
{"smiles": "CC(C)CCC[C@@H](C)[C@H]1CC[C@H]2[C@@H]3CC=C4C[C@@H](O)CC[C@]4(C)[C@H]3CC[C@]12C", "note": "[CH, cholesterol]", "values": [{"measurement": "Reversal of DHEA-induced growth inhibition", "setting": "HT-29 SF cells [1]", "result": "no such effect"}, {"measurement": "Prevention of DHEA-induced S phase depletion", "setting": "HT-29 SF cells [2]", "result": "very little effect"}]}
{"smiles": "C[C@]12CC[C@H](O)CC1=CC[C@@H]1[C@@H]2CC[C@]2(C)C(=O)CC[C@@H]12", "note": "[DHEA, 3β-hydroxyandrost-5-en-17-one]", "values": [{"measurement": "Effect on growth of HT-29 cells", "setting": "HT-29 SF cells [3]", "result": "time- and dose-dependent inhibition of growth"}, {"measurement": "Solubility in water", "setting": "Solubility of DHEA-S; water", "result": "insoluble in water"}, {"measurement": "Percentage of cells in G1 / S phase", "setting": "HT-29 SF cells [4]; 200 μM, after 24 hours", "result": "more rapid increase in the percentage of cells in G1 and a decreased proportion of cells in S phase"}, {"measurement": "G2M phase cells", "setting": "HT-29 SF cells [4]; 25 or 50 μM, after 48 hours", "result": "transient increase"}, {"measurement": "Percentage of cells in G1 phase", "setting": "HT-29 SF cells [4]; 25 or 50 μM, after 72 hours", "result": "increased"}, {"measurement": "Cell cycle distribution", "setting": "HT-29 SF cells [4]; 25 or 50 μM, after the initial 24 hours", "result": "unchanged"}, {"measurement": "Overall effect on cell cycle", "setting": "HT-29 SF cells [4]; time- and dose-dependent", "result": "G1 block"}]}
{"smiles": "CC12CCC3C(CC=C4CC(OS(=O)(=O)[O-])CCC43C)C1CCC2=O.[Na+]", "note": "(stereo not drawn) [DHEA-S Dihydrate]", "values": [{"measurement": "Fine particle fraction compared with virtually anhydrous material", "setting": "[5]", "result": "higher fine particle fraction"}, {"measurement": "Particle size (D50%)", "setting": "[6]; Bulk", "result": 31, "unit": "microns"}, {"measurement": "Water (% w/w)", "setting": "[6]; Bulk", "result": 8.5, "unit": "% w/w"}, {"measurement": "Particle size (D50%)", "setting": "[6]; Micronized", "result": 3.7, "unit": "microns"}, {"measurement": "Water (% w/w)", "setting": "[6]; Micronized", "result": 8.4, "unit": "% w/w"}, {"measurement": "Surface area (m^2/g)", "setting": "[6]; Micronized, five point BET", "result": 4.9, "unit": "m^2/g"}, {"measurement": "Colour after storage", "setting": "[7]; 1 week at 50° C.", "result": "no change in color"}, {"measurement": "DHEA % formed", "setting": "[7]; 50° C., 1 week", "result": 0.216, "unit": "%"}, {"measurement": "DHEA % formed", "setting": "[7]; 50° C., 3 weeks", "result": 0.317, "unit": "%"}, {"measurement": "DHEA % formed", "setting": "[7]; 50° C., 4 weeks", "result": 0.374, "unit": "%"}, {"measurement": "DHEA % formed", "setting": "[7]; Control, initial (Time=0)", "result": 0.213, "unit": "%"}, {"measurement": "DHEA % formed", "setting": "[7]; Control, sealed, 25° C., 4 weeks", "result": 0.218, "unit": "%"}, {"measurement": "Water content, starting value", "setting": "[7]; before storage", "result": 8.8, "unit": "%"}, {"measurement": "Water content after accelerated storage", "setting": "[7]; one week at 50° C.", "result": 8.66, "unit": "%"}]}
{"smiles": "C[C@]12CC[C@H](OS(=O)(=O)[O-])CC1=CC[C@@H]1[C@@H]2CC[C@]2(C)C(=O)CC[C@@H]12.[Na+]", "note": "[DHEA-S, sodium dehydroepiandrostenone sulfate]", "values": [{"measurement": "Solubility", "setting": "Solubility of DHEA-S; 0.9% NaCl, refrigerated (7-8° C.)", "result": "1100 to 1300", "unit": "µg/mL"}, {"measurement": "Ksp", "setting": "Solubility of DHEA-S; 15° C., interpolated", "result": "~1316", "unit": "mM^2"}, {"measurement": "Solubility in hexane", "setting": "Solubility of DHEA-S; hexane", "result": "insoluble"}, {"measurement": "Equilibrium constant Ksp", "setting": "Solubility of DHEA-S; refrigerated (7-8° C.)", "result": 665, "unit": "mM^2"}, {"measurement": "Equilibrium constant Ksp", "setting": "Solubility of DHEA-S; room temperature (24-25° C.)", "result": 2236, "unit": "mM^2"}, {"measurement": "Solubility", "setting": "Solubility of DHEA-S; ~25° C., 0% NaCl", "result": "16500 to 17400", "unit": "µg/mL"}, {"measurement": "Degradation of the drug during jet milling micronization", "setting": "[8]", "result": "no detectable degradation"}, {"measurement": "Stability of nebulizer formulation", "setting": "[9]; 7.5 mg/mL in 0.12% NaCl, RT", "result": "stable for at least one day"}, {"measurement": "Appearance of solution on storage", "setting": "[9]; 40° C.", "result": "became cloudy after two days of storage"}, {"measurement": "Appearance of solution on storage", "setting": "[9]; RT (24-26° C.)", "result": "slight precipitate is observed on the third day"}]}
{"smiles": "C[C@@](O)(CCO)CC(=O)O", "note": "[MVA, mevalonic acid]", "values": [{"measurement": "Reversal of DHEA-induced growth inhibition", "setting": "HT-29 SF cells [1]", "result": "partially overcome"}, {"measurement": "Prevention of DHEA-induced S phase depletion", "setting": "HT-29 SF cells [2]", "result": "partially prevented"}]}
{"smiles": "C[C@]12CCC(=O)C=C1CC[C@@H]1[C@@H]2CC[C@@]2(C)[C@H]1CC[C@]2(C)O", "note": "[Methyltestosterone, methyltestosterone]", "values": [{"measurement": "Intracellular adenosine, Liver", "setting": "adenosine; Methyltestosterone 40 mg/kg, mean±SEM", "result": "16.5 ± 0.9", "unit": "nmols/mg protein"}, {"measurement": "Intracellular adenosine, Liver", "setting": "adenosine; Methyltestosterone 120 mg/kg, mean±SEM", "result": "5.1 ± 0.5", "unit": "nmols/mg protein"}]}
{"smiles": "O=C(Nc1c(Cl)cncc1Cl)c1ccc(OC(F)F)c(OCC2CC2)c1", "note": "[Roflumilast]", "values": [{"measurement": "Reduction of number of exacerbations compared to placebo", "setting": "asthma; higher dose", "result": 48, "unit": "%"}, {"measurement": "Reduction of number of exacerbations compared to placebo", "setting": "asthma; lower dose", "result": 8, "unit": "%"}]}
{"smiles": "CC(C)=CCC/C(C)=C/CC/C(C)=C/CC/C=C(\\C)CC/C=C(\\C)CCC=C(C)C", "note": "[SQ, squalene]", "values": [{"measurement": "Reversal of DHEA-induced growth inhibition", "setting": "HT-29 SF cells [1]", "result": "no such effect"}]}
